Laboratory results: patent publication US20130012440A1, “PREVENTIVE AND/OR THERAPEUTIC AND/OR AGGRAVATION SUPPRESSING AGENT FOR HUMAN ARTHRITIS DEFORMANS” (ASAHI KASEI PHARMA CORPORATION, priority 2009, published 2013)
Marks after values point to notes of the source that are not given here.

Tests used:
[1] = system: mice; experiment: Fatal toxicity after administration to mice; assay type: in vivo; settings: 3300 or 2000 units/kg (body weight), intravenous, intramuscular, subdermal, or oral routes
Source text: (§1) The aforedescribed PTH or PTH derivative has extremely low toxicity.

[2] = system: adenyl cyclase from rat kidney; experiment: Activity measurement according to the article of Marcus et al.; assay type: biochemical; settings: method of Marcus et al. (Non-Patent Document 44)
Procedure: [Non-Patent Document 44] Marcus, R et al. “Bioassay of parathyroid hormone in vitro with a stable preparation of adenyl cyclase from rat kidney” Endocrinology 85: 801-810, 1969. […]
(§2) Female patients diagnosed with primary osteoporosis on the basis of the diagnostic criteria of Non-Patent Document 42 were given intermittent subdermal administrations of 5 or 100 units of an acetate salt of human PTH (1-34), which was prepared using the method of Takai (Patent Documents 4 and 5, Non-Patent Document 43), once per week (accordingly, there was a 5-unit administration group and a 100-unit administration group). The measured activity of the acetate salt of human PTH (1-34) was 3300 units/mg in the present test example according to the article of Marcus et al. (Non-Patent Document 44).

[3] = system: female patients diagnosed with primary osteoporosis; experiment: Test Example 2: onset and exacerbation of knee osteoarthritis during once-weekly subdermal administration (placebo vs 200-unit group); assay type: in vivo, human
Procedure: Two tablets of a calcium agent (containing 500 mg of precipitated calcium carbonate (200 mg of calcium) per tablet) were further administered orally once per day to the placebo group and the 200-unit administration group.
(§3) During the course of administration, both groups were prohibited from concurrent usage of calcitonin formulations, activated vitamin D3 formulations, vitamin K formulations, ipriflavone formulations, formulations of salts of bisphosphonic acid, estrogen formulations, anabolic-hormone formulations, doctor-prescribed calcium formulations (excepting the aforedescribed calcium agent administered as two tablets per day), and other medicinal agents thought to exert an effect on bone metabolism.
(§4) The attending physicians evaluated knee osteoarthritis according to the diagnostic criteria of each medical treatment facility on the basis of, e.g., the chief complaints of the patient, such as knee-joint pain and knee pain.

[4] = system: female patients diagnosed with primary osteoporosis; experiment: Test Example 1: onset of knee osteoarthritis during once-weekly subdermal administration (5- vs 100-unit groups); assay type: in vivo, human; settings: for Frequency of onset (%) of knee osteoarthritis / Number of cases of onset of knee osteoarthritis: subdermal once per week
Procedure: as §2
An injectable formulation containing 5 or 100 units per vial of the acetate salt of human PTH (1-34) was dissolved into 1 mL of normal saline solution at the time of usage, and 1 mL/person was subdermally administered to the 5-unit and 100-unit groups. Two tablets of a calcium agent (containing 500 mg of precipitated calcium carbonate (200 mg of calcium) per tablet) were further administered orally once per day to the 5-unit and 100-unit groups.
as §3, §4
The frequency of onset of knee osteoarthritis in the 5-unit administration group in the present test example was also compared to the natural frequency of onset. The value used for the natural frequency of onset resulted from dividing the 174,000 female arthritis patients of ages 70 through 74 throughout the country in the Japanese Nationwide Patient Survey (2005, edited by the Statistics and Information Department of the Minister's Secretariat of the Ministry of Health, Labour and Welfare, [published by] the Health and Welfare Statistics Association) by the population of 3,597,754 women of the same age throughout the country according to the Statistics Bureau of the Ministry of Internal Affairs and Communications.

[5] = system: rats; experiment: Fatal toxicity after administration to rats; assay type: in vivo; settings: 3300 or 2000 units/kg (body weight), intravenous, intramuscular, subdermal, or oral routes
Source text: as §1

[6] = system: monkeys subjected to ovariectomy; settings: cited from earlier work
[7] = system: mice subjected to orchiectomy; settings: cited from earlier work
[8] = system: hip osteoarthritis; settings: systematic review of clinical results; cited from earlier work
[9] = system: rats subjected to ovariectomy; settings: cited from earlier work
[10] = system: knee osteoarthritis patients; settings: cited from earlier work
[11] = system: spontaneous-onset guinea pig model; settings: cited from earlier work
[12] = system: rabbit model of anterior cruciate ligament transection; settings: cited from earlier work
[13] = system: rabbit model of meniscus damage; settings: cited from earlier work
[14] = system: cartilage cells acquired from knee osteoarthritis patients; settings: cited from earlier work
[15] = system: rat model of osteoarthritis; settings: cited from earlier work
[16] = listed as printed as 100-unit administration group, subdermal once per week
[17] = 5-unit administration group, 165 cases

Question: With human PTH (1-34) as the molecule, how does the Fatal toxicity [1] read?
Answer: Its Fatal toxicity is “never observed”.

Question: And the Measured activity [2]?
Answer: Its Measured activity is 3300 units/mg.

Question: What about the “Frequency of onset of knee osteoarthritis, 200-unit group compared with placebo group” value ([3]; 200 units once per week) of the same molecule?
Answer: Its value is “less than that in the placebo group”.

Question: And the “Onset and exacerbation of knee osteoarthritis in osteoporosis patients” value ([3]; administration to osteoporosis patients)?
Answer: The value was “clearly and markedly limits the onset and exacerbation of knee osteoarthritis”.

Question: What about the “Exacerbation of knee osteoarthritis: Number of cases of exacerbation” value [3, 16] of the same molecule?
Answer: The value was 4.

Question: And the “Onset of knee osteoarthritis: Frequency of onset (%)” value [3, 16]?
Answer: The value was 5.4%.

Question: And the “Onset of knee osteoarthritis: Number of cases of onset” value [3, 16]?
Answer: The value was 15.

Question: And the “Frequency of onset (%) of knee osteoarthritis” value [4, 17]?
Answer: The value was 6.67%.

Question: And the “Number of cases of onset of knee osteoarthritis” value [4, 17]?
Answer: The value was 11.

Question: And the “Frequency of onset of knee osteoarthritis, 5-unit group compared with natural frequency of onset” value ([4]; 5 units once per week, 6.67% vs natural 4.84%)?
Answer: The value was “statistically significant difference was not found”.

Question: And the “Number of cases of onset of knee osteoarthritis” value ([4]; 100-unit administration group, 314 cases)?
Answer: Its value is 4.

Question: And the “Frequency of onset (%) of knee osteoarthritis” value ([4]; 100-unit administration group, 314 cases, p < 0.05 vs 5-unit group)?
Answer: The value was 1.27* %.

Question: What about the “Frequency of onset of knee osteoarthritis, 100-unit group compared with 5-unit group” value ([4]; 100 units once per week vs 5 units, p<0.05) of the same molecule?
Answer: The value was “significantly less than that in the 5-unit administration group”.

Question: And the “Onset of knee osteoarthritis, 100-unit group compared with natural onset” value ([4]; 100 units once per week, natural frequency of onset 4.84%)?
Answer: Its value is “significantly more limited onset of knee osteoarthritis than in the case of natural onset”.

Question: What about the Fatal toxicity [5] of the same molecule?
Answer: The Fatal toxicity was “never observed”.

Question: What does the source list for Estrogen?
Answer: Activity for improving cartilage degeneration [6]: activity for improving cartilage degeneration; Activity for improving cartilage degeneration [7]: activity for improving cartilage degeneration; Effects of estrogen therapy [8]: has not been found to have clear effects; Risk of hip osteoarthritis [8]: increase the risk of hip osteoarthritis; Activity for improving cartilage degeneration [9]: activity for improving cartilage degeneration

Question: Which Medicinal effects ([10]; clinical tests on knee osteoarthritis patients) does the source give for `O=P(O)(O)C(O)(Cc1cccnc1)P(=O)(O)O` [risedronate] here?
Answer: The Medicinal effects was “medicinal effects were not found”.

Question: And the “Effect of limiting cartilage degeneration” value [11]?
Answer: The value was “found to have an effect of limiting cartilage degeneration”.

Question: For Hyaluronate, which “Efficacy as a medicine for limiting the progression of the disease” value ([10]; meta-analyses of clinical tests on knee osteoarthritis patients) is on record?
Answer: Its value is “in doubt”.

Question: What about the “Activity for limiting disease progression” value [12] of the same molecule?
Answer: The value was “activity for limiting disease progression”.

Question: What about the Accelerating healing [13] of the same molecule?
Answer: The Accelerating healing was “accelerating healing”.

Question: And the “Limiting apoptosis of cartilage cells” value [14]?
Answer: Its value is “activity for limiting apoptosis of cartilage cells”.

Question: What about the “Limiting the production of enzymes that degrade the cartilage matrix” value [14] of the same molecule?
Answer: The value was “showed activity for limiting the production of enzymes that degrade the cartilage matrix”.

B1: parathyroid hormone (protein, UniProt P01270 32-115, looked up)
Parathyroid hormone: SVSEIQLMHNLGKHLNSMERVEWLRKKLQDVHNFVALGAPLAPRDAGSQRPRKKEDNVLVESHEKSLGEADKADVNVLTKAKSQ
modifications: Parathyroid hormone
Question: With B1 as the molecule, how does the Therapeutic effect [15] read?
Answer: The Therapeutic effect was “a slight therapeutic effect”.
